Measured values published in paper PMC11988817, “Prediction and Prioritisation of Novel Anthelmintic Candidates from Public Databases Using Deep Learning and Available Bioactivity Data Sets” (International Journal of Molecular Sciences, 2025).
Where two headings read alike, the source gives them in different places.

Tests used:
Haemonchus contortus = conditions: cited from earlier work
[1] = tested on: exsheathed third-stage larvae (xL3s) of H. contortus; assay: abnormal larval phenotype / worm morphology assessment; parameters: species or system Haemonchus contortus; key to Abnormal Phenotype: curved (Cur); evisceration (Evi); coiled (Coi); conditions: 168 h; for Abnormal Phenotype: exhibited at 50 µM
Description: (§1) The prioritised compounds were purchased from MolPort and evaluated for their activity by estimating their IC50 values and MMIs against xL3s of H. contortus (Haecon-5 strain) using an established method. In brief, xL3s were dispensed in 96-well plates (cat. no. 3596; Corning, Corning, NY, USA) at a density of 300 xL3s per well with individual, serially diluted compounds (9-points; 2-fold serial dilution; 50 µM to […]), in a final volume of 100 µL of LB* (= sterile lysogenic broth [LB] supplemented with 100 IU/mL penicillin, 100 µg/mL streptomycin and 0.25 µg/mL amphotericin B [Fungizone®, Thermo Fisher Scientific, Waltham, MA, USA]). Plates containing xL3s were incubated at 38 °C, 10% (v/v) CO2 and >90% relative humidity. Following 168 h of incubation, the compounds were tested by three independent experiments in triplicate. The xL3s motility and development to fourth-stage larvae (L4s) were measured with reference to two commercial anthelmintics, monepantel (Zolvix^TM; Elanco, Greenfield, IN, USA) and moxidectin (Cydectin®; Virbac, Carros, France). Negative control wells containing 0.25% (v/v) DMSO were present on all plates. […] Compound concentrations were log10-transformed and fitted using a variable slope four-parameter equation, constraining the highest value to 100% and employing a least squares (ordinary) fit model as implemented in GraphPad Prism software (v.10.0.1). A one-way analysis of variance (ANOVA) with a Dunnett’s multiple comparison test was used to establish statistically significant differences in larval motility and in development.

[2] = tested on: exsheathed third-stage larvae (xL3s) of H. contortus; assay: xL3 larval motility dose-response assay; parameters: species or system Haemonchus contortus; conditions: for inhibition at 50 µM / inhibition at up to 50 µM: read-out: Larval motility maximal inhibition (MI; MMI) (converted); for IC50: read-out: Larval Motility IC50; for inhibition at 50 µM / inhibition at up to 50 µM / Larval motility maximal inhibition (MI; MMI): at 50 µM; for inhibition of xL3 motility (in words): dose-response up to 50 µM
Description: as §1

[3] = tested on: exsheathed third-stage larvae (xL3s) of H. contortus; assay: xL3 larval development (to L4) assay; parameters: species or system Haemonchus contortus; conditions: for IC50: Haemonchus contortus, read-out: Larval Development IC50
Description: as §1

[4] = HepG2 cytotoxicity (CellTiter-Glo); assay type: cell-based; conditions: human
Description: The cytotoxicity of the prioritised compounds 3, 4 and 6 on human hepatoma (HepG2) cells was evaluated as described previously. In brief, HepG2 cells were first cultured (in an incubator at 5% (v/v) CO2, 37 °C and >90% humidity) in Dulbecco’s modified Eagle’s medium (DMEM), supplemented with 5% (v/v) foetal bovine serum (FBS). The test compounds were serially diluted (10-points; 2-fold serial dilution; top concentration of 50 μM) in DMEM plus 10% (v/v) FBS, adjusted to a DMSO concentration of 0.5% (v/v) and arrayed across a 384-well plate. Bortezomib (10 μM) was used as a positive control, and 0.5% DMSO was used as a negative control. HepG2 cells (1 × 10^3 cells per 50 μL of DMEM plus 10% FBS) were then seeded into wells of the assay plate; the plates were then incubated in 5% (v/v) CO2, 37 °C and >90% humidity for 48 h. Subsequently, cell proliferation was assessed using CellTiter-Glo (Promega, Fitchburg, WI, USA) and normalised against the negative controls and expressed as a percentage. All compounds were tested in duplicate. The half-maximal cytotoxic (CC50) values were calculated using the software Dotmatics (v.5.3) and Spotfire (v.7.11.1) employing a non-linear regression four-parameter fit analysis.

[5] = tested on: adult males of H. contortus; assay: adult male motility time-course assay; parameters: species or system Haemonchus contortus; conditions: 50 µM
Description: (§2) Subsequently, the selected compounds evaluated for in vitro activity against larvae were further assessed for their activity against adult females and males of H. contortus using an established motility assay. In brief, the compound was dispensed in 24-well plates (cat. no. 3524; Corning) at a concentration of 50 μM in 500 μL of RPMI* (RPMI 1640 medium supplemented with 4 mM L-glutamine, 100 U/mL penicillin, 100 µg/mL streptomycin and 0.25 µg/mL amphotericin B). Two positive controls, monepantel and moxidectin, were each prepared in the same manner, and a negative control containing 0.25% (v/v) DMSO was included on all plates. Three adult females or males were added to each of the wells containing either the test compound or a control compound and then incubated at 38 °C, 10% (v/v) CO2 and >90% relative humidity for 24 h. The compounds were tested in triplicate. A video recording (30 sec) of each well was taken at 0 h, 3 h, 6 h, 12 h and 24 h during the entire incubation period to assess the reduction in worm motility—scored as 3 (‘good’), 2 (‘low’), 1 (‘very low’) or 0 (‘none’). For each test or control compound, the motility scores for each of the triplicate wells were calculated, normalised with reference to the negative control (100% motility), and recorded as a percentage. A two-way ANOVA with Dunnett’s multiple comparison test was used to establish statistically significant differences against the DMSO control in worm motility for each time point.

[6] = tested on: adult females of H. contortus; assay: adult female motility time-course assay; parameters: species or system Haemonchus contortus; conditions: 50 µM
Description: as §2

[7] = Haemonchus contortus, 168 h, xL3s, 168 h
[8] = Haemonchus contortus, 168 h, xL3s, 168 h of exposure, three independent assays in triplicate

Row | Structure (SMILES) | Abnormal Phenotype [1] | inhibition at 50 µM [2, 7] [%] | IC50 [2, 8] [µM] | IC50 ([3]; xL3s, 168 h of exposure) [µM] | other results
1 | COc1ccc(-c2cnc3c(n2)CCCC3)cc1C#N [APDB C798] |  |  |  |  | antiparasitic activity (in words) (Haemonchus contortus; tetrahydroquinoxalines): antiparasitic activity was observed
2 | CC(C)Oc1cccc(-c2cnc3c(n2)CCCC3)c1 [APDB C802] |  |  |  |  | antiparasitic activity (in words) (Haemonchus contortus; tetrahydroquinoxalines): antiparasitic activity was observed
3 | CC(C#N)(COc1cc(C#N)ccc1C(F)(F)F)NC(=O)c1ccc(OC(F)(F)F)cc1 (stereo not shown) [APDB C823] |  |  |  |  | antiparasitic activity (in words) (Haemonchus contortus): possess antiparasitic activity
4 | COC(=O)c1ccc(-c2cc(C#N)ccn2)cc1 [Compound 1, Methyl 4-(4-cyanopyridin-2-yl)benzoate] | curved (Cur) and Evi | 50 | 6.2 ± 0.3 | > 50 | Larvae with abnormal phenotype (exhibited at 50 µM) [1]: 20%; inhibition of larval development (in words) ([3]; 168 h): not inhibited
5 | N=C(N)c1ccc(N2CCOCC2)cc1 [Compound 2, 4-(Morpholin-4-yl)benzene-1-carboximidamide] | nil |  | 1.8 ± 1.4 | > 50 | inhibition at up to 50 µM [2, 7]: 53%
6 | COc1ccc(-c2cncc(C#N)n2)cc1OC [Compound 3, 6-(3,4-Dimethoxyphenyl)pyrazine-2-carbonitrile] | Evi | 54 | 7.9 ± 1.9 | 37.1 | CC50 at 48 h ([4]; HepG2 cells (human hepatoma)): > 40 µM; Larvae with abnormal phenotype (exhibited at 50 µM) [1]: 80%; altered worm morphology / abnormal phenotype (in words) [1]: induced an abnormal phenotype; inhibition of xL3 motility (in words) ([2]; 168 h): inhibition of H. contortus motility was only observed; Larval development maximal inhibition (MI) ([3]; xL3s, 168 h of exposure): 100%
7 | c1ccc(-c2cnc3ccccc3n2)cc1 [Compound 4, 2-Phenylquinoxaline] | nil |  |  |  | CC50 at 48 h ([4]; HepG2 cells): > 40 µM; IC50 ([2]; Haemonchus contortus, 168 h): 5.8 ± 4.1 µM; IC50 ([3]; 168 h): > 50 µM; motility reduction, adult males, 24 h [5]: 50%; motility reduction, adult females, 24 h [6]: 40%
8 | O=C(CCC(F)(F)F)NCCc1cnccn1 [Compound 5, 4,4,4-Trifluoro-N-[2-(pyrazin-2-yl)ethyl]butanamide] | nil | 65 | 37.5 ± 2.5 | > 50 | 
9 | N#Cc1ccc(OCc2cccc(F)c2)cc1 [Compound 6, 4-[(3-Fluorophenyl)methoxy]benzonitrile] | Evi | 100 | 7.4 ± 9.4 | 23.6 | CC50 at 48 h ([4]; HepG2 cells (human hepatoma)): > 40 µM; Larvae with abnormal phenotype (exhibited at 50 µM) [1]: 100%; inhibition of xL3 motility (in words) ([2]; 168 h): inhibition of H. contortus motility was only observed; motility reduction, adult males, 6 h [5]: 50%; motility reduction, adult males, 12 h [5]: 75%; motility reduction, adult males, 24 h [5]: 100%; effect on adult male motility (in words) ([5]; within 24 h): complete immobilisation; motility reduction, adult females, 6 h [6]: 33%; motility reduction, adult females, 12 h [6]: 50%; motility reduction, adult females, 24 h [6]: 75%; effect on adult female motility (in words) ([6]; within 24 h): significant reduction in the motility
10 | N#Cc1ccc(N2CCC(O)CC2)cc1 [Compound 7, 4-(4-Hydroxypiperidin-1-yl)benzonitrile] | nil | 70 | 2.1 ± 3.5 | > 50 | 
11 | CC12CN3CN(C1)CC(c1ccccc1)(C3)C2=O [Compound 8, (1S,5R,7S)-5-Methyl-7-phenyl-1,3-diazatricyclo[3.3.1.1³,⁷]decan-6-one] | nil | 42 | 0.8 ± 1.6 | > 50 | 
12 | N#Cc1ccc(NC(=O)COCC(=O)NCC(N)=O)cc1 [Compound 9, N-(Carbamoylmethyl)-2-{[(4-cyanophenyl)carbamoyl]methoxy}acetamide] | nil | 46 | 4.1 | > 50 | 
13 | CC(C)(CO)NCC#Cc1ccccc1 [Compound 10, 2-Methyl-2-[(3-phenylprop-2-yn-1-yl)amino]propan-1-ol] | nil | 50 | 0.8 ± 1.2 | > 50 | motility reduction, adult females, 24 h [6]: 40%
14 | C[C@](C#N)(COc1cc(C#N)ccc1C(F)(F)F)NC(=O)c1ccc(SC(F)(F)F)cc1 [Monepantel, N-[(2S)-2-cyano-1-[5-cyano-2-(trifluoromethyl)phenoxy]propan-2-yl]-4-(trifluoromethylsulfanyl)benzamide, reference compound] | Coi |  | 0.2 ± 0.002 | 0.4 | Larvae with abnormal phenotype (exhibited at 50 µM) [1]: 100%; inhibition at up to 50 µM [2, 7]: 100%; motility reduction, adult males, 6 h [5]: 67%; motility reduction, adult males, 12 h [5]: 67%; motility reduction, adult males, 24 h [5]: 100%; motility reduction, adult females, 6 h [6]: 67%; motility reduction, adult females, 12 h [6]: 67%; motility reduction, adult females, 24 h [6]: 67%
15 | CO/N=C1\C[C@]2(C[C@@H]3C[C@@H](C/C=C(\C)C[C@@H](C)/C=C/C=C4\CO[C@@H]5[C@H](O)C(C)=C[C@@H](C(=O)O3)[C@]45O)O2)O[C@H](/C(C)=C/C(C)C)[C@H]1C [Moxidectin, (1R,4S,4'E,5'S,6R,6'S,8R,10E,13R,14E,16E,20R,21R,24S)-21,24-dihydroxy-4'-methoxyimino-5',11,13,22-tetramethyl-6'-[(E)-4-methylpent-2-en-2-yl]spiro[3,7,19-trioxatetracyclo[15.6.1.14,8.020,24]pentacosa-10,14,16,22-tetraene-6,2'-oxane]-2-one, reference compound] | nil |  | 0.5 | 45 | Larval motility maximal inhibition (MI; MMI) ([2]; xL3s, 168 h): 75%; Larval motility maximal inhibition (MI; MMI) ([2]; xL3s, 168 h, listed as moxidectin): 5%; IC50 ([2]; xL3s, 168 h of exposure, three independent assays in triplicate): 0.8 ± 0.4 µM; Larval development maximal inhibition (MI) ([3]; xL3s, 168 h of exposure): 100%
